Laboratory results reported in patent US20220119354A1, “DIAMINO-SUBSTITUTED PYRIDINES AND PYRIMIDINES AS HERBICIDES” (FMC Corporation, priority 2019, published 2022).

Assays:
Assay type in all cases: in vivo
[1] = tested on: barnyardgrass (Echinochloa crus-galli); assay: Test A preemergence, barnyardgrass; settings: 0 to 100 scale, 0 is no effect, 100 is complete control
Procedure, shortened: (§1)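 Seeds sown in loam–sand blend received a directed soil spray of test chemical in non-phytotoxic solvent with surfactant (preemergence); postemergence plants at 2–10 cm, one- to two-leaf stage, were sprayed with the same formulation. Injury rated visually versus untreated controls after ~10 d in greenhouse, 0–100 scale.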

[2] = tested on: kochia (Kochia scoparia); assay: Test A preemergence, kochia; settings: 0 to 100 scale, 0 is no effect, 100 is complete control
Procedure, shortened: as §1

[3] = tested on: ragweed (common ragweed, Ambrosia elatior); assay: Test A preemergence, ragweed; settings: 0 to 100 scale, 0 is no effect, 100 is complete control
Procedure, shortened: as §1

[4] = tested on: ryegrass, Italian (Lolium multiflorum); assay: Test A preemergence, Italian ryegrass; settings: 0 to 100 scale, 0 is no effect, 100 is complete control
Procedure, shortened: as §1

[5] = tested on: foxtail, giant (Setaria faberii); assay: Test A preemergence, giant foxtail; settings: 0 to 100 scale, 0 is no effect, 100 is complete control
Procedure, shortened: as §1

[6] = tested on: pigweed (Amaranthus retroflexus); assay: Test A preemergence, pigweed; settings: 0 to 100 scale, 0 is no effect, 100 is complete control
Procedure, shortened: as §1

[7] = tested on: barnyardgrass (Echinochloa crus-galli); assay: Test A postemergence, barnyardgrass; settings: 0 to 100 scale, 0 no effect, 100 complete control
Procedure, shortened: as §1

[8] = tested on: kochia (Kochia scoparia); assay: Test A postemergence, kochia; settings: 0 to 100 scale, 0 no effect, 100 complete control
Procedure, shortened: as §1

[9] = tested on: ragweed (common ragweed, Ambrosia elatior); assay: Test A postemergence, ragweed; settings: 0 to 100 scale, 0 no effect, 100 complete control
Procedure, shortened: as §1

[10] = tested on: ryegrass, Italian (Lolium multiflorum); assay: Test A postemergence, Italian ryegrass; settings: 0 to 100 scale, 0 no effect, 100 complete control
Procedure, shortened: as §1

[11] = tested on: foxtail, giant (Setaria faberii); assay: Test A postemergence, giant foxtail; settings: 0 to 100 scale, 0 no effect, 100 complete control
Procedure, shortened: as §1

[12] = tested on: pigweed (Amaranthus retroflexus); assay: Test A postemergence, pigweed; settings: 0 to 100 scale, 0 no effect, 100 complete control
Procedure, shortened: as §1

[13] = tested on: wheat (Triticum aestivum); assay: Test A postemergence, wheat; settings: 0 to 100 scale, 0 no effect, 100 complete control
Procedure, shortened: as §1

[14] = tested on: corn (Zea mays); assay: Test A postemergence, corn; settings: 0 to 100 scale, 0 no effect, 100 complete control
Procedure, shortened: as §1

[15] = tested on: blackgrass (Alopecurus myosuroides); assay: Test A postemergence, blackgrass; settings: 0 to 100 scale, 0 no effect, 100 complete control
Procedure, shortened: as §1

[16] = tested on: galium (catchweed bedstraw, Galium aparine); assay: Test A postemergence, galium; settings: 0 to 100 scale, 0 no effect, 100 complete control
Procedure, shortened: as §1

[17] = tested on: rice (Oryza sativa); assay: Test B flooded paddy test, rice; settings: Flood, 250 g ai/ha, applied to paddy water, 2-leaf stage, visual evaluation after 13 to 15 d
Procedure, shortened: (§2)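 Application was made into paddy water of pots flooded 3 cm deep at treatment, with seedlings at the 2-leaf stage. That flood level was kept throughout, and plants stayed under glass 13 to 15 d before visual assessment on a 0–100 control scale.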

[18] = tested on: sedge, umbrella (small-flower umbrella sedge, Cyperus difformis); assay: Test B flooded paddy test, umbrella sedge; settings: Flood, 250 g ai/ha, applied to paddy water, 2-leaf stage, visual evaluation after 13 to 15 d
Procedure, shortened: as §2

[19] = tested on: ducksalad (Heteranthera limosa); assay: Test B flooded paddy test, ducksalad; settings: Flood, 250 g ai/ha, applied to paddy water, 2-leaf stage, visual evaluation after 13 to 15 d
Procedure, shortened: as §2

[20] = tested on: barnyardgrass (Echinochloa crus-galli); assay: Test B flooded paddy test, barnyardgrass; settings: Flood, 250 g ai/ha, applied to paddy water, 2-leaf stage, visual evaluation after 13 to 15 d
Procedure, shortened: as §2

| SMILES | Barnyardgrass plant response rating ([1]; 125 g ai/ha) | Barnyardgrass plant response rating ([1]; 500 g ai/ha) | Kochia plant response rating ([2]; 125 g ai/ha) | Kochia plant response rating ([2]; 500 g ai/ha) | Ragweed plant response rating ([3]; 125 g ai/ha) | Ragweed plant response rating ([3]; 500 g ai/ha) | Ryegrass, Italian plant response rating ([4]; 125 g ai/ha) | Ryegrass, Italian plant response rating ([4]; 500 g ai/ha) | Foxtail, Giant plant response rating ([5]; 125 g ai/ha) | Foxtail, Giant plant response rating ([5]; 500 g ai/ha) | Pigweed plant response rating ([6]; 125 g ai/ha) | Pigweed plant response rating ([6]; 500 g ai/ha) | Plant response rating, Barnyardgrass ([7]; 125 g ai/ha) | Plant response rating, Barnyardgrass ([7]; 500 g ai/ha) | Plant response rating, Kochia ([8]; 125 g ai/ha) | Plant response rating, Kochia ([8]; 500 g ai/ha) | Plant response rating, Ragweed ([9]; 125 g ai/ha) | Plant response rating, Ragweed ([9]; 500 g ai/ha) | Plant response rating, Ryegrass, Italian ([10]; 125 g ai/ha) | Plant response rating, Ryegrass, Italian ([10]; 500 g ai/ha) | also measured |
| --- | --- | --- | --- | --- | --- | --- | --- | --- | --- | --- | --- | --- | --- | --- | --- | --- | --- | --- | --- | --- | --- |
| Nc1nc(NC(c2cc3ccccc3o2)C2CC2)ncc1C(F)(F)F (stereo not drawn) [Compound 88] | 70 | 90 | 70 | 100 | 80 | 100 | 50 | 100 | 90 | 100 | 100 | 100 | 10 | 90 | 90 | 90 | 30 | 90 | 50 | 60 | Plant response rating, Foxtail, Giant ([11]; 125 g ai/ha): 30; Plant response rating, Foxtail, Giant ([11]; 500 g ai/ha): 90; Plant response rating, Pigweed ([12]; 125 g ai/ha): 100; Plant response rating, Pigweed ([12]; 500 g ai/ha): 100; Plant response rating, Wheat ([13]; 125 g ai/ha): 0; Plant response rating, Wheat ([13]; 500 g ai/ha): 0; Plant response rating, Corn ([14]; 125 g ai/ha): 20; Plant response rating, Corn ([14]; 500 g ai/ha): 30; Plant response rating, Blackgrass ([15]; 125 g ai/ha): 50; Plant response rating, Blackgrass ([15]; 500 g ai/ha): 50; Plant response rating, Galium ([16]; 125 g ai/ha): 90; Plant response rating, Galium ([16]; 500 g ai/ha): 90; Plant response rating, Rice (0 to 100 scale, 0 is no effect, 100 is complete control) [17]: 0; Plant response rating, Sedge, Umbrella (0 to 100 scale, 0 is no effect, 100 is complete control) [18]: 95; Plant response rating, Ducksalad (0 to 100 scale, 0 is no effect, 100 is complete control) [19]: 65; Plant response rating, Barnyardgrass (0 to 100 scale, 0 is no effect, 100 is complete control) [20]: 80 |
| Nc1nc(NC(c2cc3ccccc3o2)C2CC2)ncc1C(F)(F)F (stereo not drawn) [Compound 89] | 0 | 0 | 0 | 0 | 0 | 20 | 0 | 0 | 0 | 0 | 0 | 0 | 0 | 0 | 0 | 0 | 0 | 0 | 0 | 0 | Plant response rating, Foxtail, Giant ([11]; 125 g ai/ha): 0; Plant response rating, Foxtail, Giant ([11]; 500 g ai/ha): 0; Plant response rating, Pigweed ([12]; 125 g ai/ha): 0; Plant response rating, Pigweed ([12]; 500 g ai/ha): 0; Plant response rating, Wheat ([13]; 125 g ai/ha): 0; Plant response rating, Wheat ([13]; 500 g ai/ha): 0; Plant response rating, Corn ([14]; 125 g ai/ha): 0; Plant response rating, Corn ([14]; 500 g ai/ha): 0; Plant response rating, Blackgrass ([15]; 125 g ai/ha): 0; Plant response rating, Blackgrass ([15]; 500 g ai/ha): 0; Plant response rating, Galium ([16]; 125 g ai/ha): 0; Plant response rating, Galium ([16]; 500 g ai/ha): 0; Plant response rating, Rice (0 to 100 scale, 0 is no effect, 100 is complete control) [17]: 0; Plant response rating, Sedge, Umbrella (0 to 100 scale, 0 is no effect, 100 is complete control) [18]: 95; Plant response rating, Ducksalad (0 to 100 scale, 0 is no effect, 100 is complete control) [19]: 30; Plant response rating, Barnyardgrass (0 to 100 scale, 0 is no effect, 100 is complete control) [20]: 30 |
